Results taken from paper PMC6345774, “Kinetic and thermodynamic effects of phosphorylation on p53 binding to MDM2” (Scientific Reports, 2019).

Assays:
[1] = target: T1, human MDM2 (residues 2–125) (Homo sapiens, UniProt Q00987); experiment: Isothermal titration calorimetry of p53-peptide binding to MDM2; settings: ITC, 15 °C, 50 mM Tris-HCl pH 8.0, 250 mM NaCl, 0.5 mM TCEP; for ΔH of binding: repeated twice
T1 construct: human MDM2 (residues 2–125); made in house; host or cells: E. coli BL21 (DE3)
Description: Protein concentration was determined from the absorbance of its seven Tyr residues.
Peptide binding to MDM2 was measured by using an Auto-iTC200 (Malvern Instruments, Malvern UK), as described[24],[37]. Data acquisition was carried out with a reference power of 10 µcal/s, initial delay of 60 s, spacing between injections of 150 s. In a typical ITC experiment, the p53 peptide was loaded into a 40 μl syringe and the protein was placed into the sample cell. The sequence of injections consisted of one 0.5 μl injection followed by 19 injections of 2 μl each. Control experiments loading peptide into buffer solution were also carried out for each peptide. Experiments were performed with freshly prepared protein solutions, at 15 °C in the same buffer used in fluorescence experiments. ITC experiments were performed at 15 °C rather than 25 °C to avoid aggregation of MDM2.
Each peak was integrated using NITPIC software. The areas of the peaks are related to the heat exchanged upon binding and/or dilution. This heat was corrected of the heat of dilution (i.e., the average heat of the injections after the equilibrium has reached the saturation). Titration with each peptide was repeated twice.

[2] = Far-UV CD of isolated peptides in aqueous solution (helicity); assay type: physicochemical; settings: 5 °C, 50 mM phosphate pH 6.8; for molar ellipticity at 222 nm, [Θ]222: far-UV CD; for % Helix in water ([Θ]222): from molar ellipticity at 222 nm assuming 100% helix = −31500 deg cm^2 dmol^−1
Description: Spectra were acquired on a Jasco J815 spectropolarimeter (Jasco, Japan) interfaced with a Peltier unit. The instrument was periodically calibrated with (+) 10-camphorsulphonic acid. Far-UV measurements (in aqueous or TFE solutions) were performed in 0.1-cm-pathlength quartz cells (Hellma), with a response time of 2 s, a band width of 1 nm, data were collected every 0.2 nm, and a scan velocity of 50 nm/min (or 20 nm/min). […] In all peptides, two concentrations (10 μM and 70 μM) in aqueous solutions (50 mM sodium phosphate buffer, pH 6.8 […]) were used to determine whether either the shapes or the intensities of the spectra were concentration-dependent. […] In all cases (aqueous solution or TFE titrations), the corresponding blank solutions (containing only buffer, or buffer and the corresponding amount of TFE) were subtracted from the spectra.
(§1) For the TFE titrations, a peptide concentration of 40 μM was used. The samples were prepared the day before and left overnight at 5 °C to reach equilibrium. The experiments in aqueous solution were acquired at 5 °C, in 50 mM sodium phosphate buffer, pH 6.8. Raw ellipticity was converted to molar ellipiticity, [Θ], from which the percentage of helical populations was determined. Co-solvent concentrations were indicated in percentage of volume. […] Fitting of the titration curves, obtained by observation of the molar ellipticity at 222 nm as the TFE concentration was increased, was carried out with Kaleidagraph (Synergy software).

[3] = TFE titrations monitored by CD (helical population); assay type: physicochemical; settings: 5 °C, 50 mM phosphate pH 6.8, peptide 40 μM; for [TFE]1/2 (midpoint of TFE titration) / m (m-value of TFE titration): CD at 222 nm, two-state fit, ± fitting error; for % Helix in water (from ΔG in TFE titrations): from ΔG = [TFE]1/2 × m, for 1% values the error was 10%
Description: Unlike the above programs, which make assumptions about how the ellipticity signal relates to secondary structure content, a TFE titration allows the determination of helical content derived from the free-energy change for the equilibrium between folded (in TFE) and unfolded peptide, without any such assumptions.
as §1

[4] = target: T2, human MDM2 (residues 2–125) (human, UniProt Q00987 2-125); experiment: ITC; p53 peptide in the syringe titrated into MDM2 in the cell; Auto-iTC200; 15 °C; 50 mM Tris-HCl pH 8.0, 250 mM NaCl, 0.5 mM TCEP; settings: both partners purified
T2 construct: MDM2 (murine double minute 2), human, N-terminal domain, residues 2-125; no tag is named; also called N-terminal domain of MDM2
T2 sequence (Q00987 2-125): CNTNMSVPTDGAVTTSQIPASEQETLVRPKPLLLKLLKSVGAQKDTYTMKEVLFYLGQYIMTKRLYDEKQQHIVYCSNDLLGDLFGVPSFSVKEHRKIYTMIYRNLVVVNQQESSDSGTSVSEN

T1 sequence (Q00987 2-125): as above

## CC(=O)N[C@@H](CCC(=O)O)C(=O)N[C@@H](CC(=O)O)C(=O)N[C@@H](Cc1ccccc1)C(=O)N[C@@H](CC(=O)O)C(=O)N[C@@H](CC(=O)O)C(=O)N[C@@H](CC(C)C)C(=O)N[C@@H](Cc1c[nH]c2ccccc12)C(=O)N[C@@H](CCCCN)C(=O)N[C@@H](CC(C)C)C(=O)N[C@@H](CC(C)C)C(=O)N1CCC[C@H]1C(=O)N[C@@H](CCC(=O)O)C(=O)N[C@@H](CC(N)=O)C(N)=O [P53-D18-D20]
[1]
  TΔS of binding: -16.6 kJ/mol
[1]; peptide titrated into MDM2
  ΔH of binding: -41.6 kJ/mol
[2]
  molar ellipticity at 222 nm, [Θ]222: −2811 deg cm^2 dmol^−1
  % Helix in water ([Θ]222): 9%
[3]
  [TFE]1/2 (midpoint of TFE titration): 9.8 ± 0.8 % (vol:vol)
  m (m-value of TFE titration): 263 ± 47 cal mol^−1(%)^−1
  % Helix in water (from ΔG in TFE titrations): 1%

## CC(=O)N[C@@H](CCC(=O)O)C(=O)N[C@H](C(=O)N[C@@H](Cc1ccccc1)C(=O)N[C@@H](COP(=O)(O)O)C(=O)N[C@@H](CC(=O)O)C(=O)N[C@@H](CC(C)C)C(=O)N[C@@H](Cc1c[nH]c2ccccc12)C(=O)N[C@@H](CCCCN)C(=O)N[C@@H](CC(C)C)C(=O)N[C@@H](CC(C)C)C(=O)N1CCC[C@H]1C(=O)N[C@@H](CCC(=O)O)C(=O)N[C@@H](CC(N)=O)C(N)=O)[C@@H](C)OP(=O)(O)O [P53-pTpS]
[2]
  molar ellipticity at 222 nm, [Θ]222: −2547 deg cm^2 dmol^−1
  % Helix in water ([Θ]222): 8.1%

## CC(=O)N[C@@H](CCC(=O)O)C(=O)N[C@@H](CC(=O)O)C(=O)N[C@@H](Cc1ccccc1)C(=O)N[C@@H](CCC(=O)O)C(=O)N[C@@H](CC(=O)O)C(=O)N[C@@H](CC(C)C)C(=O)N[C@@H](Cc1c[nH]c2ccccc12)C(=O)N[C@@H](CCCCN)C(=O)N[C@@H](CC(C)C)C(=O)N[C@@H](CC(C)C)C(=O)N1CCC[C@H]1C(=O)N[C@@H](CCC(=O)O)C(=O)N[C@@H](CC(N)=O)C(N)=O [P53-D18-E20]
[1]
  TΔS of binding: -12.7 kJ/mol
[1]; peptide titrated into MDM2, read-out: Log KA (converted)
  Kd: 5.89 µM
[1]; peptide titrated into MDM2
  ΔH of binding: -41.4 kJ/mol
[2]
  molar ellipticity at 222 nm, [Θ]222: −3597 deg cm^2 dmol^−1
  % Helix in water ([Θ]222): 11.4%
[3]
  [TFE]1/2 (midpoint of TFE titration): 33 ± 5 % (vol:vol)
  m (m-value of TFE titration): 112 ± 70 cal mol^−1(%)^−1
  % Helix in water (from ΔG in TFE titrations): 1%

## CC(=O)N[C@@H](CCC(=O)O)C(=O)N[C@H](C(=O)N[C@@H](Cc1ccccc1)C(=O)N[C@@H](COP(=O)(O)O)C(=O)N[C@@H](CC(=O)O)C(=O)N[C@@H](CC(C)C)C(=O)N[C@@H](Cc1c[nH]c2ccccc12)C(=O)N[C@@H](CCCCN)C(=O)N[C@@H](CC(C)C)C(=O)N[C@@H](CC(C)C)C(=O)N1CCC[C@H]1C(=O)N[C@@H](CCC(=O)O)C(=O)N[C@@H](CC(N)=O)C(N)=O)[C@@H](C)O [P53-pS]
[2]
  molar ellipticity at 222 nm, [Θ]222: −4614 deg cm^2 dmol^−1
  % Helix in water ([Θ]222): 14.6%

## Ac-EDFSDLWKLLPEN-NH2 [Ac-EdFSDLWKLLPEN-NH2 (P53-D18)]
[4]
  Kd: 19 µM
  Log KA: 4.72
  dH: -76.9 kJ/mol

## Ac-EDFDDLWKLLPEN-NH2 [Ac-EdFdDLWKLLPEN-NH2 (P53-D18-D20)]
[4]
  dH: -41.6 kJ/mol

## Ac-EDFEDLWKLLPEN-NH2 [Ac-EdFeDLWKLLPEN-NH2 (P53-D18-E20)]
[4]
  dH: -41.4 kJ/mol
